Experimental data from article PMC4729491, “The Cellular Thioredoxin-1/Thioredoxin Reductase-1 Driven Oxidoreduction Represents a Chemotherapeutic Target for HIV-1 Entry Inhibition” (PLoS ONE, 2016).
“Also recorded” adds a separate entry of the source.

Experiments:
PDI = PDI (Homo sapiens, UniProt P07237); assay: SPR binding to immobilized PDI; settings: 10, 50 and 250 μM
Method: SPR analysis was performed to evaluate binding of TE-2 to immobilized recombinant TrxR1, PDI, gp120, gp41 and sCD4. Therefore, these ligands were immobilized on a CM5 sensor chip (GE Healthcare, Uppsala, Sweden) using standard amine coupling in the presence of 10 mM sodium acetate, pH 5. A high ligand-density chip was created, with ligand densities of 6759, 5004, 4119, 2900 and 5569 RU, respectively. A reference flow cell was used to control for non-specific binding and refractive index changes. All interactions were studied at 25°C on a Biacore T200 instrument (GE Healthcare, Uppsala, Sweden) in HBS-P (10 mM HEPES, 150 mM NaCl and 0.05% surfactant P20; pH 7.4) supplemented with 10 mM CaCl2 and 5% DMSO. TE-2 was tested at the concentrations 10, 50 and 250 μM. Samples were injected during 2 minutes at a flow rate of 30 μl/min, followed by a dissociation phase of 2 minutes. Each injection was followed by a regeneration step with 50 mM NaOH (injected during 10 seconds at a flow rate of 100 μl/min).

HIV-1(BaL) = assay: Antiviral activity in PHA-stimulated PBMCs (p24 ELISA), HIV-1(BaL); type: cell-based; settings: PHA-stimulated PBMCs; mean ± SD; read-out: EC50 HIV-1 (BAL)
Method: To test the antiviral activity in fresh, PHA-stimulated PBMCs, an experiment was performed as previously described. Briefly, the cells were preincubated with HIV-1(IIIB), HIV-1(BaL) or HIV-1(HE) for 1 h at 37°C, using a viral load of 1000 x CCID50 per ml. Then, cell suspensions containing virus and 2 x 10^5 PBMCs were seeded in a 96-well microtiter plate and a serial dilution of compound was added, in a total volume of 200 μl. After 4 days, the cells were passaged and fresh culture medium, containing IL-2 and compound, was added. Three days later, cellular supernatants were harvested and viral replication in the presence of the compounds was quantified using a p24 enzyme-linked immunosorbent assay (ELISA) (Perkin Elmer, Brussels, Belgium). The half maximal effective concentration (EC50) was defined as the compound concentration that is required to block viral replication by 50%.

HIV-1(IIIB) = type: cell-based; settings: MT-4 cells, p24 ELISA at 31 h; TE-2 at 50 μM
Method: Two time-of-drug-addition (TOA) experiments were performed and adopted from previously reported methods. Briefly, MT-4 cells were infected with HIV-1(IIIB) at a multiplicity of infection of 0.5. Following a 1 hour adsorption period, cells were washed, distributed in a 96-well tray at 100,000 cells per 200 μl per well and incubated at 37°C.
For the first experiment, test compounds were added to the infected cell cultures at different time points (i.e. 0, 1, 2, 3, 4, 5, 6, 7, 8, 9, 24, and 25 h) after the start of infection.
In a second experiment, the resolution of the assay was increased by evaluating early time points in more detail. Therefore, the test compounds were added to the infected cell cultures at the following time points after the start of infection: 0, 15, 30, 45, 100 and 180 min; and 24 as well as 25 h.
Product added at time points 0, 15, 30 and 45 min was present at the start of the viral infection and washed away after 1 hour. After washing, fresh product was added to maintain viral suppression throughout the remaining of the experiment.
HIV-1 production was determined at 31 h post infection via a p24 ELISA (Perkin Elmer, Brussels, Belgium).

Sequence of PDI (P07237 18-508, species assumed): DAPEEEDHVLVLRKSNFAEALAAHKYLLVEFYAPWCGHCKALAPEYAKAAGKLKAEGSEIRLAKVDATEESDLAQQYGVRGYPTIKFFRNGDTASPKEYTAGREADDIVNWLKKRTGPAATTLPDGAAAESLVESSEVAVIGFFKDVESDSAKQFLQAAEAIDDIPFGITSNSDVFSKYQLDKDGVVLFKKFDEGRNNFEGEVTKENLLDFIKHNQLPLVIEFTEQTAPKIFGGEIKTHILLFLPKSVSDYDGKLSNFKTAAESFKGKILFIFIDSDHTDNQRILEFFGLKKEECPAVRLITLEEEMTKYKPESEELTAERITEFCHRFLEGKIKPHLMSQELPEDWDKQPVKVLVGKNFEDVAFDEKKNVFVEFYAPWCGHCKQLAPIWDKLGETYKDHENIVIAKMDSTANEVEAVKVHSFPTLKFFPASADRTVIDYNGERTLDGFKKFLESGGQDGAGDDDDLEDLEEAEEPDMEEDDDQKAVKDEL

6-(butyltelluro)-6-deoxy-β-cyclodextrin [TE-2]
SPR binding to PDI (PDI): dose-dependently interact with PDI
EC50 (HIV-1(BaL)): ≥ 25 µM
time-of-drug-addition profile (HIV-1(IIIB)): mostly lost when added at t = 1 h after infection; also recorded: profile resembling that of the fusion inhibitor enfuvirtide (T-20)
